Source: PubChem BioAssay (NCI)
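In this assay, cells in 96-well plates receive the compound at five concentrations for 48 hours. Endpoints are linearly interpolated between the surrounding concentrations. GI50: concentration for 50% inhibition of growth. At the TGI there is no net growth.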

Experiments:
Assay in all cases: NCI anticancer screen, dose series, 48 h; in the data active means GI50 below about 0.43 µM; inactive means the rest
786-0 renal = tested on: 786-0 renal
A549 NSCLC = tested on: A549 NSCLC
ACHN renal = tested on: ACHN renal
BT-549 breast = tested on: BT-549 breast
CAKI-1 renal = tested on: CAKI-1 renal
CCRF-CEM leukemia = tested on: CCRF-CEM leukemia
COLO 205 colon = tested on: COLO 205 colon
DU-145 prostate = tested on: DU-145 prostate
EKVX NSCLC = tested on: EKVX NSCLC
HCC-2998 colon = tested on: HCC-2998 colon
HCT-116 colon = tested on: HCT-116 colon
HCT-15 colon = tested on: HCT-15 colon
HOP-62 NSCLC = tested on: HOP-62 NSCLC
HOP-92 NSCLC = tested on: HOP-92 NSCLC
HS 578T breast = tested on: HS 578T breast
HT29 colon = tested on: HT29 colon
IGROV1 ovarian = tested on: IGROV1 ovarian
K-562 leukemia = tested on: K-562 leukemia
KM12 colon = tested on: KM12 colon
LOX IMVI melanoma = tested on: LOX IMVI melanoma
M14 melanoma = tested on: M14 melanoma
MCF7 breast = tested on: MCF7 breast
MDA-MB-231 breast = tested on: MDA-MB-231 breast
MDA-MB-435 = tested on: MDA-MB-435
MOLT-4 leukemia = tested on: MOLT-4 leukemia
NCI-H226 lung = tested on: NCI-H226 lung
NCI-H23 lung = tested on: NCI-H23 lung
NCI-H460 lung = tested on: NCI-H460 lung
NCI-H522 lung = tested on: NCI-H522 lung
NCI/ADR-RES ovarian = tested on: NCI/ADR-RES ovarian
OVCAR-3 ovarian = tested on: OVCAR-3 ovarian
OVCAR-4 ovarian = tested on: OVCAR-4 ovarian
OVCAR-5 ovarian = tested on: OVCAR-5 ovarian
OVCAR-8 ovarian = tested on: OVCAR-8 ovarian
PC-3 prostate = tested on: PC-3 prostate
RPMI-8226 leukemia = tested on: RPMI-8226 leukemia
RXF 393 renal = tested on: RXF 393 renal
SF-268 CNS = tested on: SF-268 CNS
SF-295 CNS = tested on: SF-295 CNS
SF-539 CNS = tested on: SF-539 CNS
SK-MEL-2 melanoma = tested on: SK-MEL-2 melanoma
SK-MEL-28 melanoma = tested on: SK-MEL-28 melanoma
SK-MEL-5 melanoma = tested on: SK-MEL-5 melanoma
SK-OV-3 ovarian = tested on: SK-OV-3 ovarian
SN12C renal = tested on: SN12C renal
SNB-19 CNS = tested on: SNB-19 CNS
SNB-75 CNS = tested on: SNB-75 CNS
SW-620 colon = tested on: SW-620 colon
T-47D breast = tested on: T-47D breast
TK-10 renal = tested on: TK-10 renal
U251 CNS = tested on: U251 CNS
UACC-257 melanoma = tested on: UACC-257 melanoma
UACC-62 melanoma = tested on: UACC-62 melanoma
UO-31 renal = tested on: UO-31 renal

O=C1CCS/C(=N\S(=O)(=O)c2ccc(N3N=C4c5ccccc5CC4C3c3cccs3)cc2)N1C(=O)c1ccccc1 (stereo not drawn)
33 µM: TGI (RXF 393 renal)
67.1 µM: TGI (OVCAR-3 ovarian)
active: GI50 (UACC-257 melanoma) 0.334 µM
86.6 µM: TGI (CAKI-1 renal)
34.2 µM: TGI (HS 578T breast)
> 100 µM: TGI (BT-549 breast) | TGI (COLO 205 colon) | TGI (DU-145 prostate) | TGI (EKVX NSCLC) | TGI (HOP-62 NSCLC) | TGI (HOP-92 NSCLC) | TGI (HT29 colon) | TGI (K-562 leukemia) | TGI (MCF7 breast) | TGI (NCI-H460 lung) | TGI (NCI/ADR-RES ovarian) | TGI (OVCAR-4 ovarian) | TGI (PC-3 prostate) | TGI (RPMI-8226 leukemia) | TGI (SF-268 CNS) | TGI (SF-295 CNS) | TGI (SF-539 CNS) | TGI (SK-MEL-2 melanoma) | TGI (SK-MEL-28 melanoma) | TGI (SK-OV-3 ovarian) | TGI (SNB-19 CNS) | TGI (SNB-75 CNS) | TGI (SW-620 colon) | TGI (T-47D breast) | TGI (UO-31 renal)
42.7 µM: TGI (CCRF-CEM leukemia)
20.6 µM: TGI (UACC-257 melanoma)
29.9 µM: TGI (IGROV1 ovarian)
24.3 µM: TGI (A549 NSCLC)
53.4 µM: TGI (MDA-MB-435)
41.5 µM: TGI (NCI-H23 lung)
65.1 µM: TGI (NCI-H522 lung)
6.07 µM: TGI (SK-MEL-5 melanoma)
77.9 µM: TGI (MOLT-4 leukemia)
inactive: GI50 (786-0 renal) 14.1 µM | GI50 (A549 NSCLC) 10.6 µM | GI50 (ACHN renal) 5.18 µM | GI50 (BT-549 breast) 4.77 µM | GI50 (CAKI-1 renal) 26.8 µM | GI50 (CCRF-CEM leukemia) 15 µM | GI50 (COLO 205 colon) 66.5 µM | GI50 (DU-145 prostate) 23.2 µM | GI50 (EKVX NSCLC) 22.1 µM | GI50 (HCC-2998 colon) 18.2 µM | GI50 (HCT-116 colon) 10 µM | GI50 (HCT-15 colon) 15.1 µM | GI50 (HOP-62 NSCLC) 31.1 µM | GI50 (HOP-92 NSCLC) 25.4 µM | GI50 (HS 578T breast) 2.85 µM | GI50 (HT29 colon) 39.6 µM | GI50 (IGROV1 ovarian) 14.5 µM | GI50 (K-562 leukemia) 26.4 µM | GI50 (KM12 colon) 29.4 µM | GI50 (LOX IMVI melanoma) 7.61 µM | GI50 (M14 melanoma) 10.8 µM | GI50 (MCF7 breast) 9.1 µM | GI50 (MDA-MB-231 breast) 5.77 µM | GI50 (MDA-MB-435) 22.7 µM | GI50 (MOLT-4 leukemia) 5.04 µM | GI50 (NCI-H226 lung) 15.9 µM | GI50 (NCI-H23 lung) 17.2 µM | GI50 (NCI-H460 lung) 26.6 µM | GI50 (NCI-H522 lung) 14.4 µM | GI50 (NCI/ADR-RES ovarian) 32.9 µM | GI50 (OVCAR-3 ovarian) 27.4 µM | GI50 (OVCAR-4 ovarian) > 100 µM | GI50 (OVCAR-5 ovarian) 25.8 µM | GI50 (OVCAR-8 ovarian) 0.816 µM | GI50 (PC-3 prostate) 29.2 µM | GI50 (RPMI-8226 leukemia) 5.86 µM | GI50 (RXF 393 renal) 6.31 µM | GI50 (SF-268 CNS) 13.7 µM | GI50 (SF-295 CNS) 32.7 µM | GI50 (SF-539 CNS) 2.38 µM | GI50 (SK-MEL-2 melanoma) 29.4 µM | GI50 (SK-MEL-28 melanoma) 50.2 µM | GI50 (SK-MEL-5 melanoma) 2.56 µM | GI50 (SK-OV-3 ovarian) 52.8 µM | GI50 (SN12C renal) 16.7 µM | GI50 (SNB-19 CNS) 45.7 µM | GI50 (SNB-75 CNS) > 100 µM | GI50 (SW-620 colon) 13.1 µM | GI50 (T-47D breast) > 100 µM | GI50 (TK-10 renal) 24.5 µM | GI50 (U251 CNS) 4.5 µM | GI50 (UACC-62 melanoma) 6.37 µM | GI50 (UO-31 renal) 30.7 µM
32.1 µM: TGI (HCC-2998 colon)
41 µM: TGI (NCI-H226 lung)
54.3 µM: TGI (OVCAR-5 ovarian)
21.6 µM: TGI (HCT-116 colon)
23.8 µM: TGI (LOX IMVI melanoma)
57.1 µM: TGI (SN12C renal)
18.5 µM: TGI (ACHN renal)
31.3 µM: TGI (HCT-15 colon)
83.1 µM: TGI (KM12 colon)
26.8 µM: TGI (MDA-MB-231 breast)
28 µM: TGI (UACC-62 melanoma)
17.5 µM: TGI (OVCAR-8 ovarian)
54.7 µM: TGI (TK-10 renal)
27.2 µM: TGI (786-0 renal) | TGI (M14 melanoma)
17.4 µM: TGI (U251 CNS)
